Experimental data taken from the Kinase Knowledgebase extract (Sharma et al. 2016).

biological target: MAPK14 (human) (UniProt Q16539); assay: Inhibition of In vitro MAPK14 Kinase Activity
Sequence (Q16539 whole entry, looked up): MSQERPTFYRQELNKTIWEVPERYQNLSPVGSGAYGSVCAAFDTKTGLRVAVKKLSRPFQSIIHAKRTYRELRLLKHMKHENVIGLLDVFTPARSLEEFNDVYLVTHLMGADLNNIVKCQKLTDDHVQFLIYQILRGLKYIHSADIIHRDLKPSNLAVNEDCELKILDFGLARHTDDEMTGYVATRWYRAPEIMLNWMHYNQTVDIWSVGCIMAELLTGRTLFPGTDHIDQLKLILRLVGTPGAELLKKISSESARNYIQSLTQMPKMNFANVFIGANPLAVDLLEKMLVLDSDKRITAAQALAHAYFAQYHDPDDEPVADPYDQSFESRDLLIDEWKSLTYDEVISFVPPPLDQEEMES

| IC50 | SMILES |
| --- | --- |
| 0.1 to 20 µM | Cc1c(OCCc2ccccc2)cnn(-c2c(Cl)cccc2Cl)c1=O |
| 0.1 to 20 µM | O=c1c(Br)c(OCc2ccccc2)cnn1-c1c(Cl)cccc1Cl |
| 0.1 to 20 µM | COc1ccccc1COc1cnn(-c2c(Cl)cccc2Cl)c(=O)c1Br |
| > 100 µM | CC(C)Cc1c(OCCc2ccccc2)cnn(-c2c(Cl)cccc2Cl)c1=O |
| 0.1 to 20 µM | O=c1c(Br)c(NCCc2ccccc2)cnn1-c1c(Cl)cccc1Cl |
| 0.1 to 20 µM | O=c1c(Br)c(NCc2ccccc2)cnn1-c1c(Cl)cccc1Cl |
| 20 to 40 µM | CN(CCc1ccccc1)c1cnn(-c2c(Cl)cccc2Cl)c(=O)c1Br |
| 0.1 to 20 µM | O=c1c(Br)c(OCc2ccc(F)cc2F)cnn1-c1c(Cl)cccc1Cl |
| 0.1 to 20 µM | O=c1c(Br)c(OCCc2ccccn2)cnn1-c1c(Cl)cccc1Cl |
| 0.1 to 20 µM | O=c1c(Br)c(OCc2ccccc2CCl)cnn1-c1c(Cl)cccc1Cl |
| 0.1 to 20 µM | O=c1c(Br)c(OCc2ccc(F)cc2)cnn1-c1c(Cl)cccc1Cl |
| 0.1 to 20 µM | CS(=O)(=O)OCc1ccccc1COc1cnn(-c2c(Cl)cccc2Cl)c(=O)c1Br |
| > 100 µM | O=c1c(Br)c(Nc2ccccc2)cnn1-c1c(Cl)cccc1Cl |
| 60 to 80 µM | COc1c(OCCc2ccccc2)cnn(-c2c(Cl)cccc2Cl)c1=O |
| 0.1 to 20 µM | Nc1ccccc1CNc1cnn(-c2c(Cl)cccc2Cl)c(=O)c1Br |
| 60 to 80 µM | NN(Cc1ccccc1)c1cnn(-c2c(Cl)cccc2Cl)c(=O)c1Br |
| 0.1 to 20 µM | O=c1c(Br)c(OCCc2ccccc2)cnn1-c1c(Cl)cccc1Cl |
| 0.1 to 20 µM | O=c1c(Br)c(OCc2ccc(F)c(F)c2)cnn1-c1c(Cl)cccc1Cl |
| 0.1 to 20 µM | O=c1c(Br)c(NCCc2ccccc2F)cnn1-c1c(Cl)cccc1Cl |
| 0.1 to 20 µM | O=c1c(Br)c(OCc2ccccc2CO)cnn1-c1c(Cl)cccc1Cl |
| > 100 µM | O=c1c(Br)c(OCCCc2ccccc2)cnn1-c1c(Cl)cccc1Cl |

Further lines, the molecule ahead of its results:

| SMILES | IC50 |
| --- | --- |
| O=c1c(Br)c(OCc2ccc(F)cc2)cnn1Cc1ccccc1 | > 100 µM |
| O=c1c(Oc2ccccc2)c(OCCc2ccccc2)cnn1-c1c(Cl)cccc1Cl | > 100 µM |
| O=C(O)C(Nc1cnn(Cc2ccccc2)c(=O)c1Br)c1ccccc1 (configuration not stated) | > 100 µM |
| O=c1c(Br)c(N[C@@H]2C[C@H]2c2ccccc2)cnn1-c1c(Cl)cccc1Cl | > 100 µM |
| O=c1c(Br)c(NCC(CCO)c2ccc(Cl)cc2)cnn1-c1c(Cl)cccc1Cl (configuration not stated) | > 100 µM |
| O=C(O)C(Nc1cnn(-c2c(Cl)cccc2Cl)c(=O)c1Br)c1ccccc1 (configuration not stated) | > 100 µM |
| O=c1c(Br)c(NCC(O)c2ccccc2)cnn1-c1c(Cl)cccc1Cl (configuration not stated) | 0.1 to 20 µM |
| O=c1c(Br)c(NC(CO)Cc2ccccc2)cnn1-c1c(Cl)cccc1Cl (configuration not stated) | > 100 µM |
| O=c1c(Br)c(Sc2ccc(F)cc2)cnn1-c1c(Cl)cccc1Cl | > 100 µM |
| C[C@H](Nc1cnn(-c2c(Cl)cccc2Cl)c(=O)c1Br)[C@H](O)c1ccccc1 | > 100 µM |
| O=c1c(Br)c(N[C@H](CO)c2ccccc2)cnn1-c1c(Cl)cccc1Cl | 0.1 to 20 µM |
| O=c1c(Br)c(N[C@@H](CO)c2ccccc2)cnn1-c1c(Cl)cccc1Cl | > 100 µM |
| C[C@@H](Nc1cnn(-c2c(Cl)cccc2Cl)c(=O)c1Br)c1ccccc1 | 80 to 100 µM |
| CN(C)CCCn1ncc(OCCc2ccccc2)c(Br)c1=O | > 100 µM |
| CN(C)CCn1ncc(OCc2ccc(F)cc2F)c(Br)c1=O | > 100 µM |
| C[C@H](Nc1cnn(-c2c(Cl)cccc2Cl)c(=O)c1Br)c1ccccc1 | 0.1 to 20 µM |
| O=c1c(Br)c(NCc2ccc(F)cc2)cnn1Cc1ccccc1 | 60 to 80 µM |
| O=c1c(Br)c(OCc2c(F)cc(F)cc2F)cnn1-c1c(Cl)cccc1Cl | 0.1 to 20 µM |
| O=c1c(Br)c(OCc2ccc(F)c(F)c2F)cnn1-c1c(Cl)cccc1Cl | 0.1 to 20 µM |
| O=c1c(Br)c(O)cnn1-c1c(Cl)cccc1Cl | > 100 µM |
| O=c1c(Br)c(OCc2ccc(F)cc2F)cnn1Cc1ccncc1 | 0.1 to 20 µM |
| O=c1c(Br)c(NCC2CCCO2)cnn1-c1c(Cl)cccc1Cl (configuration not stated) | > 100 µM |
| CN(C)CCCn1ncc(OCc2ccc(F)cc2F)c(Br)c1=O | > 100 µM |

| SMILES | IC50 |
| --- | --- |
| O=c1c(Br)c(NCc2cccc(Cl)c2)cnn1-c1c(Cl)cccc1Cl | 20 to 40 µM |
| O=c1c(Br)c(OCCc2ccccc2)cnn1CCO | > 100 µM |
| O=c1c(Br)c(OCc2ccc(F)cc2F)cnn1CCO | 20 to 40 µM |
| O=c1[nH]ncc(OCCc2ccccc2)c1Br | > 100 µM |
| O=c1c(Br)c(N(CCO)CCc2ccccc2)cnn1-c1c(Cl)cccc1Cl | 40 to 60 µM |
| O=c1[nH]ncc(OCc2ccc(F)cc2F)c1Br | > 100 µM |
| O=c1c(Br)c(OCc2ccc(F)cc2F)cnn1-c1c(Cl)cncc1Cl | 0.1 to 20 µM |
| Cc1nc(Cn2ncc(OCc3ccc(F)cc3F)c(Br)c2=O)cs1 | 0.1 to 20 µM |
| O=c1c(Br)c(OCCc2ccccc2)cnn1Cc1ccncc1 | > 100 µM |
| O=c1c(Br)c(Sc2ccc(F)cc2)cnn1Cc1ccccc1 | > 100 µM |
| O=c1c(-c2ccccc2)c(OCCc2ccccc2)cnn1-c1c(Cl)cccc1Cl | > 100 µM |
| O=C(O)CC(CNc1cnn(-c2c(Cl)cccc2Cl)c(=O)c1Br)c1ccc(Cl)cc1 (configuration not stated) | 80 to 100 µM |
| CN(C)CCn1ncc(OCCc2ccccc2)c(Br)c1=O | > 100 µM |
| C[C@@H](Nc1cnn(-c2c(Cl)cccc2Cl)c(=O)c1Br)[C@@H](O)c1ccccc1 | > 100 µM |
| O=c1c(Br)c(OCc2ccccc2)cnn1-c1ccccc1 | 20 to 40 µM |
| O=c1c(Br)c(OCc2ccc(F)cc2F)cnn1-c1c(Cl)c[n+]([O-])cc1Cl | 0.1 to 20 µM |
| O=c1c(Br)c(NCc2ccc(F)cc2)cnn1-c1c(Cl)cccc1Cl | 0.1 to 20 µM |
| O=c1cc(OCCc2ccccc2)cnn1-c1c(Cl)cccc1Cl | 40 to 60 µM |
| O=c1c(Br)c(OCc2ccccc2)cnn1Cc1ccccc1 | > 100 µM |
| O=c1c(Br)c(NCC2CCCO2)cnn1Cc1ccccc1 (configuration not stated) | > 100 µM |
| O=c1c(Br)c(OCCc2ccccc2)cnn1Cc1ccccc1 | > 100 µM |
| O=c1c(Br)c(N2CCN(c3ccc(F)cc3)CC2)cnn1-c1c(Cl)cccc1Cl | > 100 µM |
| CC(C)c1ccccc1Sc1cnn(Cc2ccccc2)c(=O)c1Br | > 100 µM |
